From US3950525A, “Relaxation of smooth muscle in a mammal” (Pfizer Inc., priority 1975, dated 1976)
Counter-ions that a name gives are not always drawn.

Tested on: collagen induced platelet aggregation
Assay: In Vitro Inhibition of Platelet Aggregation (collagen induced, rabbit platelet-rich plasma)
Format: cell-based
Conditions: Oryctolagus cuniculus, 10 min; for inhibition at 600 µM: 6 × 10^^-4 mol./l.; for inhibition at 60 µM: 6 × 10^^-5 mol./l.; for inhibition at 6 µM: 6 × 10^^-6 mol./l.
Protocol: The ability of the compounds of the present invention to inhibit platelet aggregation in vitro is measured according to the method of Born, et al., J. Physiol., 168, 178 (1963) and comprises the following procedure: Anesthetized male rabbits are bled from a carotid artery into plastic centrifuge tubes containing 0.1 volume 3% sodium citrate. Platelet-rich plasma is separated by centrifugation at 100 G for 10 minutes at 20° C. […] After 10 minutes of incubation with the platelet-rich plasma at room temperature, collagen, a protein known to cause platelet aggregation, is added (0.27 ml. collagen/4 ml. plasma) and changes in the optical density are followed with a Spectronic 20 colorimeter attached to a Houston Instrument TY Recorder. Platelet aggregation is indicated by a decrease in optical density. The relative potency of the compounds of the present invention are thus rated on their ability to inhibit (percent) collagen induced platelet aggregation.

SMILES	inhibition at 600 µM [%]	inhibition at 60 µM [%]	inhibition at 6 µM [%]
CC(=O)Nc1cccc(-c2cc(N(C)C)ncn2)c1 [Ar=3-CH3CONHC6H4; R1=CH3; R2=CH3; R3=H]	93	13	
CC(C)Nc1cc(-c2ccccc2)ncn1 [Ar=C6H5; R1=i-C3H7; R2=H; R3=H]		88	29
CCN(CC(F)(F)F)c1cc(-c2ccccc2)ncn1 [Ar=C6H5; R1=CF3CH2; R2=C2H5; R3=H, 4-[Ethyl(2,2,2-trifluoroethyl)amino]-6-phenylpyrimidine hydrochloride]	65	39	34
CCN(CC)c1ncnc(-c2ccccc2)c1C(C)C [Ar=C6H5; R1=C2H5; R2=C2H5; R3=i-C3H7]			63
COc1ccc(-c2cc(N(C)C)ncn2)cc1 [Ar=4-CH3OC6H4; R1=CH3; R2=CH3; R3=H]	89	88	48
CCCN(CCC)c1cc(-c2ccccc2)ncn1 [Ar=C6H5; R1=n-C3H7; R2=n-C3H7; R3=H]	83	49	41
OCCN(CCO)c1cc(-c2ccccc2)ncn1 [Ar=C6H5; R1=HO(CH2)2; R2=HO(CH2)2; R3=H, 4-[Bis(2-hydroxyethyl)amino]-6-phenylpyrimidine hydrochloride]	84	27	
CN1CCN(c2cc(-c3ccccc3)ncn2)CC1 [4-(4-Methyl-1-piperazinyl)-6-phenylpyrimidine dihydrochloride]	99	99	59
CCN(CC)c1ncnc(-c2ccccc2)c1C [Ar=C6H5; R1=C2H5; R2=C2H5; R3=CH3, 4-diethylamino-5-methyl-6-phenylpyrimidine]			80
Nc1cc(-c2cccs2)ncn1 [Ar=2-thienyl; R1=H; R2=H; R3=H]	91	9	
CCN(CC)c1cc(-c2cccs2)ncn1 [Ar=2-thienyl; R1=C2H5; R2=C2H5; R3=H, 4-diethylamino-6-(2-thienyl)pyrimidine]	94		75
CN(C)c1cc(-c2ccccc2)ncn1 [Ar=C6H5; R1=CH3; R2=CH3; R3=H]	99	55	
CCCN(CC)c1cc(-c2ccccc2)ncn1 [Ar=C6H5; R1=n-C3H7; R2=C2H5; R3=H, 4-(ethyl-n-propylamino)-6-phenylpyrimidine]	99	86	79
FC(F)(F)CNc1cc(-c2ccc(Cl)cc2)ncn1 [Ar=4-ClC6H4; R1=CF3CH2; R2=H; R3=H, 4-(2,2,2-Trifluoroethylamino)-6-(p-chlorophenyl)pyrimidine hydrochloride]	86	18	
CCNc1cc(-c2cccs2)ncn1 [Ar=2-thienyl; R1=C2H5; R2=H; R3=H]	99	75	35
CCCc1c(-c2ccccc2)ncnc1N(C)C [Ar=C6H5; R1=CH3; R2=CH3; R3=n-C3H7]			40
CCc1c(-c2ccco2)ncnc1N(CC)CC [Ar=2-furyl; R1=C2H5; R2=C2H5; R3=C2H5]		30	
Clc1ccc(-c2cc(N3CCCC3)ncn2)cc1 [Ar=4-ClC6H4; R1,R2=--(CH2)4--; R3=H, 4-(1-Pyrrolidinyl)-6-(p-chlorophenyl)pyrimidine hydrochloride]	99	21	
COc1ccc(-c2cc(NCC(C)C)ncn2)cc1 [Ar=4-CH3OC6H4; R1=H; R2=i-C4H9; R3=H]	76	54	24
CCCN(CCC)c1cc(-c2cccc(N)c2)ncn1 [Ar=3-NH2C6H4; R1=n-C3H7; R2=n-C3H7; R3=H]	95	97	32
CCN(CC)c1cc(-c2cccc(N(C)C)c2)ncn1 [Ar=3-(CH3)2NC6H4; R1=C2H5; R2=C2H5; R3=H, 4-Diethylamino-6-(m-dimethylaminophenyl)pyrimidine hydrochloride]	89	95	85
CNc1cc(-c2ccccc2)ncn1 [Ar=C6H5; R1=CH3; R2=H; R3=H]	99	66	
CCCN(CCC)c1cc(-c2cccs2)ncn1 [Ar=2-thienyl; R1=n-C3H7; R2=n-C3H7; R3=H]	60	60	66
c1ccc(-c2cc(N3CCCCC3)ncn2)cc1 [Ar=C6H5; R1,R2=--(CH2)5--; R3=H, 4-(1-Piperidyl)-6-phenylpyrimidine hydrochloride]	94	61	60
CCN(CC)c1cc(-c2ccc(Cl)cc2)ncn1 [Ar=4-ClC6H4; R1=C2H5; R2=C2H5; R3=H, 4-Diethylamino-6-(p-chlorophenyl)pyrimidine hydrochloride]		73	32

SMILES	inhibition at 600 µM [%]	inhibition at 60 µM [%]	inhibition at 6 µM [%]
CCc1c(-c2ccccc2)ncnc1N(CC)CC [Ar=C6H5; R1=C2H5; R2=C2H5; R3=C2H5, 4-Diethylamino-5-ethyl-6-phenylpyrimidine Hydrochloride]			48
CCCCN(CCCC)c1cc(-c2cccc(NC(C)=O)c2)ncn1	15		
CCN(CCO)c1cc(-c2ccc(Cl)cc2)ncn1 [Ar=4-ClC6H4; R1=C2H5; R2=HO(CH2)2; R3=H]		57	18
CCNc1cc(-c2ccccc2)ncn1 [Ar=C6H5; R1=C2H5; R2=H; R3=H, 4-ethylamino-6-phenylpyrimidine]	99	91	99
CN(C)c1cc(-c2cccs2)ncn1 [Ar=2-thienyl; R1=CH3; R2=CH3; R3=H]	94	82	59
COc1ccc(-c2cc(N3CCN(C)CC3)ncn2)cc1	85	55	14
FC(F)(F)CNc1cc(-c2cccs2)ncn1 [Ar=2-thienyl; R1=CF3CH2; R2=H; R3=H]		81	14
CCCN(CCC)c1cc(-c2cccc(C(F)(F)F)c2)ncn1 [Ar=3-CF3C6H4; R1=n-C3H7; R2=n-C3H7; R3=H, 4-Di(n-propyl)amino-6-(m-trifluoromethylphenyl)pyrimidine hydrochloride]	99	50	
CCCC(=O)Nc1cccc(-c2cc(N(CC)CC)ncn2)c1	36	8	
CCN(CC)c1cc(-c2cccc(N)c2)ncn1 [Ar=3-NH2C6H4; R1=C2H5; R2=C2H5; R3=H, 4-Diethylamino-6-(m-aminophenyl)pyrimidine dihydrochloride]		67	41
COc1ccc(-c2cc(N)ncn2)cc1 [Ar=4-CH3OC6H4; R1=H; R2=H; R3=H]	72	24	3
c1ccc(-c2cc(NCc3cccnc3)ncn2)cc1 [Ar=C6H5; R1=3-picolyl; R2=H; R3=H, 4-(3-Pyridylmethylamino)-6-phenylpyrimidine dihydrochloride]	98	31	12
CCCN(CCC)c1cc(-c2ccc(Cl)cc2)ncn1 [Ar=4-ClC6H4; R1=n-C3H7; R2=n-C3H7; R3=H, 4-Di(n-propyl)amino-6-(p-chlorophenyl)pyrimidine hydrochloride]	84	70	
CN(C)CCNc1cc(-c2ccccc2)ncn1 [Ar=C6H5; R1=(CH3)2N(CH2)2; R2=H; R3=H]	99	30	
CCCN(CCC)c1cc(-c2cccc(NS(C)(=O)=O)c2)ncn1	94	3	
C=CCN(CC=C)c1cc(-c2cccs2)ncn1		50	40
Nc1cc(-c2ccccc2)ncn1 [Ar=C6H5; R1=H; R2=H; R3=H, 4-amino-6-phenylpyrimidine]	75	65	
CCNc1cc(-c2ccc(OC)cc2)ncn1 [Ar=4-CH3OC6H4; R1=H; R2=C2H5; R3=H]	92	64	24
O=[N+]([O-])c1cccc(-c2cc(N3CCCC3)ncn2)c1 [Ar=3-NO2C6H4; R1,R2=--(CH2)4--; R3=H]	94	25	
CNc1cc(-c2ccc(OC)cc2)ncn1 [Ar=4-CH3OC6H4; R1=H; R2=CH3; R3=H]	76	13	
CCc1c(-c2ccccc2)ncnc1N(C)C [Ar=C6H5; R1=CH3; R2=CH3; R3=C2H5]			50
CC(C)CNc1cc(-c2ccccc2)ncn1 [Ar=C6H5; R1=i-C4H9; R2=H; R3=H]		82	17
CN(Cc1cccnc1)c1cc(-c2ccccc2)ncn1 [Ar=C6H5; R1=3-picolyl; R2=CH3; R3=H, 4-[Methyl(3-pyridylmethyl)amino]-6-phenylpyrimidine dihydrochloride]	99	17	
CCCCNc1cc(-c2ccccc2)ncn1 [Ar=C6H5; R1=n-C4H9; R2=H; R3=H]		42	30
